Assay results from patent US20240083879A1, “OXALAMIDE COMPOUNDS AND COMPOSITIONS FOR TREATING CONDITIONS ASSOCIATED WITH STING ACTIVITY” (IFM Due, Inc., priority 2021, published 2024).

Each molecule was assayed against hSTING (Homo sapiens (Human), UniProt Q86WV6, G230A/R293Q/R71H) (assay: STING reporter assay (luciferase) in THP1-Dual KO-IFNAR2 cells stimulated with 2'3'cGAMP). Conditions: 15 μM 2'3'cGAMP, 24 h.
Format: cell-based
Description: STING pathway activation by the compounds described herein was measured using THP1-Dual™ cells (KO-IFNAR2).
THP1-Dual™ KO-IFNAR2 Cells (obtained from invivogen) were maintained in RPMI, 10% FCS, 5 ml P/S, 2 mM L-glut, 10 mM Hepes, and 1 mM sodium pyruvate. Compounds were spotted in empty 384 well tissue culture plates (Greiner 781182) by Echo for a final concentration of 0.0017-100 μM. Cells were plated into the TC plates at 40 μL per well, 2×10E6 cells/mL. For activation with STING ligand, 2′3′cGAMP (MW 718.38, obtained from Invivogen), was prepared in Optimem media.
The following solutions were prepared for each 1×384 plate: • Solution A: 2 mL Optimem with one of the following stimuli: • 60 μL of 10 mM 2′3′cGAMP→150 μM stock • Solution B: 2 mL Optimem with 60 μL Lipofectamine 2000→Incubate 5 min at RT
2 mL of solution A and 2 ml Solution B was mixed and incubated for 20 min at room temperature (RT). 20 μL of transfection solution (A+B) was added on top of the plated cells, with a final 2′3′cGAMP concentration of 15 μM. The plates were then centrifuged immediately at 340 g for 1 minute, after which they were incubated at 37° C., 5% CO2, >98% humidity for 24 h. Luciferase reporter activity was then measured. EC50 values were calculated by using standard methods known in the art.
Luciferase reporter assay: 10 μL of supernatant from the assay was transferred to white 384-plate with flat bottom and squared wells. One pouch of QUANTI-Luc™ Plus was dissolved in 25 mL of water. 100 μL of QLC Stabilizer per 25 mL of QUANTI-Luc™ Plus solution was added. 50 μL of QUANTI-Luc™ Plus/QLC solution per well was then added. Luminescence was measured on a Platereader (e.g., Spectramax I3X (Molecular Devices GF3637001)).
Luciferase reporter activity was then measured. EC50 values were calculated by using standard methods known in the art.

Sequence of hSTING (Q86WV6 whole entry R71H/G230A/R293Q): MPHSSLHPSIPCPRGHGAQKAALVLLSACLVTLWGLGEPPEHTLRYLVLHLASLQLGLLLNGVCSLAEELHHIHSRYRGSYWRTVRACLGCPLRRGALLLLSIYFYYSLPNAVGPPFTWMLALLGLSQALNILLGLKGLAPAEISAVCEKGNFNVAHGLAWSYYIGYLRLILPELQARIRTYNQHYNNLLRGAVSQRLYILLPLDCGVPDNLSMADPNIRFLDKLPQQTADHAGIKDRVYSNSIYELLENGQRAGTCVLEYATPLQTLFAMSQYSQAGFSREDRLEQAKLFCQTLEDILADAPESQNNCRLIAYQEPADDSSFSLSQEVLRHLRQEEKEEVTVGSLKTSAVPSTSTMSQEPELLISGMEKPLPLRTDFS

EC50 [nM]	Structure (SMILES)
200 to 1000	CCc1ccc(-n2cc(-c3ccc4[nH]cc(NC(=O)C(=O)NCCC(F)(F)F)c4c3)cn2)cc1 [Compound 103, N′-{5-[1-(4-ethylphenyl)-1H-pyrazol-4-yl]-1H-indol-3-yl}-N-(3,3,3-trifluoropropyl)ethanediamide]
200 to 1000	CCc1ccc(-n2cc(-c3ccc4[nH]cc(NC(=O)C(=O)NC5CCOC5)c4c3)cn2)cc1 (stereo not drawn) [Compound 108, N-{5-[1-(4-ethylphenyl)-1H-pyrazol-4-yl]-1H-indol-3-yl}-N′-(oxolan-3-yl)ethanediamide]
200 to 1000	CCc1ccc(-n2cc(-c3ccc4[nH]cc(NC(=O)C(=O)NC(C)C)c4c3)cn2)cc1 [Compound 110, N′-{5-[1-(4-ethylphenyl)-1H-pyrazol-4-yl]-1H-indol-3-yl}-N-(propan-2-yl)ethanediamide]
200 to 1000	CCc1ccc(-n2cc(-c3ccc4[nH]cc(NC(=O)C(=O)NCC(F)(F)F)c4c3)cn2)cc1 [Compound 114, N1-(5-(1-(4-ethylphenyl)-1H-pyrazol-4-yl)-1H-indol-3-yl)-N^2-(2,2,2-trifluoroethyl)oxalamide]
1000 to 5000	CNC(=O)C(=O)Nc1c[nH]c2ccc(-c3cnn(-c4cccc(Cl)c4)c3)cc12 [Compound 119, N^1-(5-(1-(3-chlorophenyl)-1H-pyrazol-4-yl)-1H-indol-3-yl)-N^2-methyloxalamide]
200 to 1000	CCc1ccc(-n2cc(-c3ccc4[nH]cc(NC(=O)C(=O)NCC(F)F)c4c3)cn2)cc1 [Compound 116, N-(2,2-difluoroethyl)-N′-{5-[1-(4-ethylphenyl)-1H-pyrazol-4-yl]-1H-indol-3-yl}ethanediamide]
1000 to 5000	CNC(=O)C(=O)Nc1c[nH]c2ccc(-c3cnn(-c4ccccc4Cl)c3)cc12 [Compound 121, N^1-(5-(1-(2-chlorophenyl)-1H-pyrazol-4-yl)-1H-indol-3-yl)-N^2-methyloxalamide]
5000 to 100000	CNC(=O)C(=O)Nc1c[nH]c2ccc(-c3cnn(C4CCCC4)c3)cc12 [Compound 122, N^1-(5-(1-cyclopentyl-1H-pyrazol-4-yl)-1H-indol-3-yl)-N^2-methyloxalamide]
200 to 1000	CCc1ccc(-n2cc(-c3ccc4[nH]cc(NC(=O)C(=O)N5CCC5)c4c3)cn2)cc1 [Compound 107, 2-(azetidin-1-yl)-N-{5-[1-(4-ethylphenyl)-1H-pyrazol-4-yl]-1H-indol-3-yl}-2-oxoacetamide]
5000 to 100000	CNC(=O)C(=O)Nc1c[nH]c2ccc(-c3cccc(C4CC4)c3)cc12 [Compound 117, N^1-(5-(3-cyclopropylphenyl)-1H-indol-3-yl)-N^2-methyloxalamide]
200 to 1000	CCc1ccc(-n2cc(-c3ccc4[nH]cc(NC(=O)C(=O)N[C@H]5C[C@H](OC)C5)c4c3)cn2)cc1 [Compound 109, N′-{5-[1-(4-ethylphenyl)-1H-pyrazol-4-yl]-1H-indol-3-yl}-N-[(1r,3r)-3-methoxycyclobutyl]ethanediamide]
200 to 1000	CCc1ccc(-n2cc(-c3ccc4[nH]cc(NC(=O)C(=O)NCCOC)c4c3)cn2)cc1 [Compound 120, N′-{5-[1-(4-ethylphenyl)-1H-pyrazol-4-yl]-1H-indol-3-yl}-N-(2-methoxyethyl)ethanediamide]
200 to 1000	CCc1ccc(-n2cc(-c3ccc4[nH]cc(NC(=O)C(=O)NC5CCCC5)c4c3)cn2)cc1 [Compound 104, N′-cyclopentyl-N-{5-[1-(4-ethylphenyl)-1H-pyrazol-4-yl]-1H-indol-3-yl}ethanediamide]
200 to 1000	CCc1ccc(-n2cc(-c3ccc4[nH]cc(NC(=O)C(=O)N5CCN(C(C)=O)CC5)c4c3)cn2)cc1 [Compound 111, 2-(4-acetylpiperazin-1-yl)-N-{5-[1-(4-ethylphenyl)-1H-pyrazol-4-yl]-1H-indol-3-yl}-2-oxoacetamide]
200 to 1000	CCc1ccc(-n2cc(-c3ccc4[nH]cc(NC(=O)C(=O)N(C)C)c4c3)cn2)cc1 [Compound 112, N′-{5-[1-(4-ethylphenyl)-1H-pyrazol-4-yl]-1H-indol-3-yl}-N,N-dimethylethanediamide]
200 to 1000	CCc1ccc(-n2cc(-c3ccc4[nH]cc(NC(=O)C(=O)N5CCCC5)c4c3)cn2)cc1 [Compound 115, N-{5-[1-(4-ethylphenyl)-1H-pyrazol-4-yl]-1H-indol-3-yl}-2-oxo-2-(pyrrolidin-1-yl)acetamide]
200 to 1000	O=C(Nc1c[nH]c2ccc(-c3cnn(-c4ccc(C(F)(F)F)cc4)c3)cc12)C(=O)NC1COC1 [Compound 102, N^1-(oxetan-3-yl)-N^2-(5-(1-(4-(trifluoromethyl)phenyl)-1H-pyrazol-4-yl)-1H-indol-3-yl)oxalamide]
200 to 1000	CCc1ccc(-n2cc(-c3ccc4[nH]cc(NC(=O)C(=O)NCC5CCCC5)c4c3)cn2)cc1 [Compound 106, N′-(cyclopentylmethyl)-N-{5-[1-(4-ethylphenyl)-1H-pyrazol-4-yl]-1H-indol-3-yl}ethanediamide]
200 to 1000	CCc1ccc(-n2cc(-c3ccc4[nH]cc(NC(=O)C(=O)NC5CCC5)c4c3)cn2)cc1 [Compound 113, N-cyclobutyl-N′-{5-[1-(4-ethylphenyl)-1H-pyrazol-4-yl]-1H-indol-3-yl}ethanediamide]
200 to 1000	CNC(=O)C(=O)Nc1c[nH]c2ccc(-c3cnn(-c4ccc(C(F)(F)F)cc4)c3)cc12 [Compound 118, N^1-methyl-N^2-(5-(1-(4-(trifluoromethyl)phenyl)-1H-pyrazol-4-yl)-1H-indol-3-yl)oxalamide]
200 to 1000	CCc1ccc(-n2cc(-c3ccc4[nH]cc(NC(=O)C(N)=O)c4c3)cn2)cc1 [Compound 124, N^1-(5-(1-(4-ethylphenyl)-1H-pyrazol-4-yl)-1H-indol-3-yl)oxalamide]
200 to 1000	CCc1ccc(-n2cc(-c3ccc4[nH]cc(NC(=O)C(=O)NC)c4c3)cn2)cc1 [Compound 123, N′-[5-[1-(4-ethylphenyl)pyrazol-4-yl]-1H-indol-3-yl]-N-methylethanediamide]
200 to 1000	CCc1ccc(-n2cc(-c3ccc4[nH]cc(NC(=O)C(=O)NCC5CC5)c4c3)cn2)cc1 [Compound 105, N-(cyclopropylmethyl)-N′-{5-[1-(4-ethylphenyl)-1H-pyrazol-4-yl]-1H-indol-3-yl}ethanediamide]
200 to 1000	CO[C@H]1C[C@H](NC(=O)C(=O)Nc2c[nH]c3ccc(-c4cnn(-c5ccc(C(F)(F)F)cc5)c4)cc23)C1 [Compound 101, N-[trans-3-methoxycyclobutyl]-N′-(5-[1-[4-(trifluoromethyl)phenyl]pyrazol-4-yl]-1H-indol-3-yl)ethanediamide]
